This is an account of results in ChEMBL document CHEMBL4699528, “Discovery and Optimization of Non-bile Acid FXR Agonists as Preclinical Candidates for the Treatment of Nonalcoholic Steatohepatitis” (J Med Chem, 2020).

The structures appear in SMILES notation.

Data set [1] can be described thus: in vivo. The settings on record: Sprague-Dawley, rat, plasma, po, 3 mg/kg.
Data set [2] can be described thus: in vivo. The settings on record: Sprague-Dawley, rat, plasma, po, 3 mg/kg. The source holds these as a separate data set.
Data set [3] can be described thus: in vivo. The settings on record: Sprague-Dawley, rat, liver, po, 3 mg/kg.
Data set [4] is described as follows: in vivo. The settings on record: Sprague-Dawley, rat, liver, po, 3 mg/kg. This is another data set of the same source.
Data set [5] is described as follows: in vivo. The settings on record: Sprague-Dawley, rat, po, 3 mg/kg.
Data set [6] in a line: in vivo. Particulars: Sprague-Dawley, rat, po, 3 mg/kg. This is another data set of the same source.
A short description of data set [7]: in vivo. Particulars: Sprague-Dawley, rat, po, 3 mg/kg. The source holds these as a separate data set.
Data set [8] can be described thus: in vivo. Particulars: Sprague-Dawley, rat, po, 3 mg/kg. This is another data set of the same source.
A short description of data set [9]: in vivo. The settings on record: Sprague-Dawley, rat, iv, 1 mg/kg.
Data set [10] can be described thus: in vivo. The settings on record: Sprague-Dawley, rat, iv, 1 mg/kg. This is another data set of the same source.
Data set [11] is described as follows: in vivo. The settings on record: Sprague-Dawley, rat, iv, 1 mg/kg. This is another data set of the same source.
Data set [12] in a line: in vivo. The settings on record: Sprague-Dawley, rat, 3 mg/kg.
The nature of data set [13]: in vivo. The settings on record: Sprague-Dawley, rat, po, 3 mg/kg. The source holds these as a separate data set.

For the molecule `Cn1cc(C(=O)O)c2ccc(N3CCC(OCc4c(-c5c(Cl)cccc5Cl)noc4C4CC4)CC3)cc21` [TERN-101], the results for the concentration at 1 h in the data set “in vivo [1]” and in the data set “in vivo [3]” were 0.0193 µg/mL and 0.121 µg/mL, respectively. Also, the values for the concentration at 4 h in “in vivo [2]” and in “in vivo [4]” were 0.0521 µg/mL and 0.153 µg/mL, respectively. The Tmax (as a rule, the time from dosing to the highest level) in “in vivo [5]” amounted to 15 min. In “in vivo [6]”, the Cmax – broadly, the highest concentration seen after dosing – is 0.283 µg/mL. Further, the half-life – broadly, how long it takes for the measured level to halve – in the data set “in vivo [7]” is 133 min. In addition, the AUC(0-t) (as a rule, exposure summed from dosing to a finite time, without extrapolation to infinity) in the data set “in vivo [8]” turned out to be 0.195 µg·h/mL; in the data set “in vivo [9]”, 0.201 µg·h/mL. Moreover, the MRT inf (as a rule, the average time that molecules of a dose stay in the body) in the data set “in vivo [10]” worked out at 21 min. Also, the clearance (in general, the volume of plasma or blood freed of the substance per unit of time) in the data set “in vivo [11]” is 4.96 L/h/kg. Besides, the Vd (usually the apparent volume that relates the amount in the body to the concentration in plasma or blood) in the data set “in vivo [12]” was 1.74 L/kg. In the data set “in vivo [13]”, the bioavailability (in general, the share of a dose that reaches the circulation, judged against a reference dose that is usually intravenous) was determined as 32.4%.

`O=C(O)c1cc(F)c2nc(N3C4CCC3CC(F)(COCc3c(-c5ccccc5OC(F)(F)F)noc3C3CC3)C4)sc2c1` (configuration not stated): the concentration at 1 h was 1.14 µg/mL in “in vivo [1]” and 2.34 µg/mL in the data set “in vivo [3]”. Besides, the figures for the concentration at 4 h in “in vivo [2]” and in “in vivo [4]” were 0.165 µg/mL and 0.612 µg/mL, respectively. The Tmax in “in vivo [5]” was 22.8 min. This molecule also yielded a Cmax in “in vivo [6]” of 0.59 µg/mL. This molecule had a half-life in the data set “in vivo [7]” of 1220 min. In addition, the figures for the AUC(0-t) in “in vivo [8]” and in “in vivo [9]” were 1.86 µg·h/mL and 1.93 µg·h/mL, respectively. The MRT inf in “in vivo [10]” is 102 min. Also, the clearance in the data set “in vivo [11]” was 0.512 L/h/kg. The same molecule yielded a Vd in “in vivo [12]” of 0.84 L/kg. This molecule also came in with a bioavailability in the data set “in vivo [13]” of 32.2%.

On to `CCn1c(C(=O)O)cc2ccc(N3CCC(F)(COCc4c(-c5c(Cl)cccc5Cl)noc4C4CC4)CC3)cc21`, for which the concentration at 1 h in the data set “in vivo [1]” worked out at 0.0063 µg/mL; in the data set “in vivo [3]”, 0.072 µg/mL. For the same molecule, the concentration at 4 h in “in vivo [2]” is 0.0126 µg/mL; in the data set “in vivo [4]”, 0.186 µg/mL.

As for `O=C(O)c1cc(F)c2nc(N3CCC(F)(COCc4c(-c5c(F)cccc5Cl)noc4C4CC4)CC3)sc2c1`, the concentration at 1 h in the data set “in vivo [1]” was 0.241 µg/mL; in “in vivo [3]”, 1.55 µg/mL. Also, the concentration at 4 h in “in vivo [2]” amounted to 0.0948 µg/mL; in “in vivo [4]”, 0.929 µg/mL.

Consider `CCn1cc(C(=O)O)c2ccc(N3CCC(F)(COCc4c(-c5c(F)cccc5Cl)noc4C4CC4)CC3)cc21`, for which the concentration at 1 h in the data set “in vivo [1]” amounted to 0.024 µg/mL; in the data set “in vivo [3]” it was 0.656 µg/mL. The concentration at 4 h in “in vivo [2]” stood at 0.049 µg/mL; in “in vivo [4]”, 0.772 µg/mL. In “in vivo [5]”, the Tmax amounted to 15 min. The molecule also had a Cmax in “in vivo [6]” of 0.117 µg/mL. The half-life in “in vivo [7]” is 58.8 min. Moreover, the results for the AUC(0-t) in the data set “in vivo [8]” and in the data set “in vivo [9]” were 0.103 µg·h/mL and 0.611 µg·h/mL, respectively. For the same molecule, in “in vivo [10]”, the mean residence time (MRT inf) turned out to be 30.6 min. The same molecule returned a clearance in the data set “in vivo [11]” of 1.58 L/h/kg. In the data set “in vivo [12]”, this molecule displayed a Vd of 0.81 L/kg. Also, the bioavailability in “in vivo [13]” came out at 5.64%.
